Source: patent publication US5281580A, “Calcitonin-containing emulsion for nasal administration” (Toyo Jozo Company, Ltd., priority 1990, dated 1994)

Assays:
Assay type in all cases: physicochemical
[1] = Turbidity just after preparation by extinction, index of emulsifiability (Example 1)
Method: (§1) […] The mixture was agitated under 15,000 rpm for 1 minute by Biomixer (NIHON SEIKI SEISAKUSHO) to prepare each emulsion. The state of dispersion just after the preparation and after 3 days standing at room temperature was observed. The turbidity just after the preparation was measured by extinction at 650 nm, and used as the index of emulsifiability.

[2] = Emulsifiability and stability of emulsions: state of dispersion observed (Example 1); details: for Just after preparation (state of dispersion): 0.1 g azacycloalkane derivative + 5.0 ml; for After 3 days standing (state of dispersion): room temperature
Method: Using 1-[2-(decylthio)ethyl]azacyclopentan-2-one chosen from the azacycloalkane derivatives, and three emulsifying agents as follows, emulsifiabilities and stabilities of the emulsions were examined:
as §1

[3] = Stabilities of emulsions relating to added concentration of the azacycloalkane derivative (Example 2); details: for Observation after 3 days standing / Observation after 7 days standing: room temperature
Method: Each 5 ml of a 1% (W/V) solution preliminarily prepared by dissolving dispotassium glycyrrhizate in distilled water was poured in each of 8 10-ml-test tubes, and thereto was added 1[2-(decylthio)ethyl] azacyclopentan-2-one chosen from the azacycloalkane derivatives so as to make a concentration ranging from 0 to 10%. Then, the mixture was agitated for 1 minute using Biomixer (NIHON SEIKI SEISAKUSHO) (15,000 rpm), to prepare each emulsion. The state of dispersion just after the preparation,or after 3 days or 7 days standing at room temperature was observed.

[4] = concentration 1.0% in 1% (W/V) dipotassium glycyrrhizate
[5] = concentration 2.0% in 1% (W/V) dipotassium glycyrrhizate

SMILES: CC1(C)[C@@H](O[C@H]2O[C@H](C(=O)[O-])[C@@H](O)[C@H](O)[C@H]2O[C@@H]2O[C@H](C(=O)[O-])[C@@H](O)[C@H](O)[C@H]2O)CC[C@]2(C)[C@H]3C(=O)C=C4[C@@H]5C[C@@](C)(C(=O)O)CC[C@]5(C)CC[C@@]4(C)[C@]3(C)CC[C@@H]12.[K+].[K+] [dipotassium glycyrrhizate]
- Turbidity (650 nm) ([1]; emulsifying agent 0.1%): 1.284
- Turbidity (650 nm) ([1]; emulsifying agent 0.5%): 0.459
- Turbidity (650 nm) ([1]; emulsifying agent 1.0%): 0.437
- Turbidity (650 nm) ([1]; emulsifying agent 2.0%): 0.405
- Turbidity (650 nm) ([1]; emulsifying agent 3.0%): 0.346
- Turbidity (650 nm) ([1]; emulsifying agent 4.0%): 0.006
- Turbidity (650 nm) ([1]; emulsifying agent 5.0%): 0.006
- Just after preparation (state of dispersion) ([2]; emulsifying agent 0.5%): White clear
- After 3 days standing (state of dispersion) ([2]; emulsifying agent 0.5%): White clear
- Just after preparation (state of dispersion) ([2]; emulsifying agent 1.0%): White clear
- After 3 days standing (state of dispersion) ([2]; emulsifying agent 1.0%): White clear
- Just after preparation (state of dispersion) ([2]; emulsifying agent 2.0%): White clear
- After 3 days standing (state of dispersion) ([2]; emulsifying agent 2.0%): White clear
- Just after preparation (state of dispersion) ([2]; emulsifying agent 3.0%): White clear
- After 3 days standing (state of dispersion) ([2]; emulsifying agent 3.0%): White clear
- emulsification (in words) ([2]; emulsifying agent at 0.1-5%): good emulsification
- dissolution (in words) ([2]; emulsifying agent at 4-5%): full dissolution

SMILES: CCCCCCCCCCSCCN1CCCC1=O [1-[2-(decylthio)ethyl]azacyclopentan-2-one]
- emulsification and stability (in words) ([3]; concentration 0.01% to 10%, using 1% dipotassium glycyrrhizate): exhibited good emulsification and gave a stable emulsion
- Observation just after preparation [3, 4]: White clear
- Observation after 3 days standing [3, 4]: White clear
- Observation after 7 days standing [3, 4]: White clear
- Observation just after preparation [3, 5]: White clear
- Observation after 3 days standing [3, 5]: White clear
- Observation after 7 days standing [3, 5]: White clear
